Data taken from patent publication US8557823B2, “Family of PFKFB3 inhibitors with anti-neoplastic activities” (Advanced Cancer Therapeutics, LLC, priority 2007, dated 2013).
≈ marks a conversion by molar mass, not a printed value. Structures can show the parent of a compound that is named as a salt.

Assays:
Jurkat cells = test: Inhibition of 2-deoxyglucose uptake, Example 14; type: cell-based; conditions: Homo sapiens, 3 hours
Procedure: Inhibition of PFKFB3 results in inhibiting glycolysis. Several feedback or feedforward activation and inhibition mechanisms exist so that, by a feedback mechanism, inhibiting the activity of PFKFB3 might inhibit glucose uptake by cells. An assay was developed to determine if there was inhibition of glucose uptake following exposure to the compounds on the invention. Briefly, Jurkat cells were plated at 1×10^5/mL in RPMI 1640 supplemented with 10% fetal bovine serum and 50 μg/mL gentamicin sulfate. Cells were immediately treated with vehicle or 0.5 μmol/L of the compound of the invention for 3 hours and subsequently placed in glucose-free RPMI 1640 for 30 min. ^14C-2-deoxyglucose (0.25 μCi/mL; Perkin Elmer) was added for an additional 60 min and cells were then washed three times with ice-cold RPMI 1640 containing no glucose. Cell lysates were collected in 500 μL of 0.1% SDS, and scintillation counts (counts/min) were measured on 400 μL of lysate. Counts were normalized to protein concentration.

U937 = test: Cancer cell proliferation, Alamar Blue assay 72 hours, U937; type: cell-based; conditions: Homo sapiens, U-937
Procedure: (§1) The ability of the compounds described herein to kill or inhibit the proliferation of cancer cells was measured using either the MTT assay, the Alamar Blue assay, or the Cell Titer Glow® assay using 48 or 72 hours exposure. […] The procedures are briefly described below. Cells of the desired tumor cell line were plated at 2×10^5 cells/ml in 96 well plates. Twice the indicated concentrations of the compounds of the invention were added to cells the following day in an equal volume of media. 72 hours later, cells were lysed and subjected to ATP determination using the CellTiter Glo-Luminescent Cell Viability Assay kit (Promega, Madison, Wis.). Experiments were done in triplicate. When using the MTT assay or the Alamar blue assay, the experimental conditions are essentially similar; at the end of the incubation period, 20 microl of the MTT solution is added per well and the samples are incubated for an additional four hours, rinsed and the absorbance at 570 nm measured. Results for the inhibition of cells proliferation are reported as IC50 as commonly done (the concentration leading to a 50% inhibition of proliferation of the cell population) and are listed in the Tables below. Table 4 lists the IC50 for the compounds of the invention in several cell lines including Jurkat, Calu-6, NCI-H82, U937, or NCI-H1437 cancer cell lines. Table 5 lists the IC50 of PFK-070 in a panel of 10 cell lines.

Calu-6 = test: Cancer cell proliferation, Alamar Blue assay 72 hours, Calu-6; type: cell-based; conditions: Homo sapiens
Procedure: as §1

NCI-H82 = test: Cancer cell proliferation, Alamar Blue assay 72 hours, NCI-H82; type: cell-based; conditions: Homo sapiens
Procedure: as §1

Jurkat = test: Cancer cell proliferation, Alamar Blue assay 72 hours, Jurkat; type: cell-based; conditions: Homo sapiens, Jurkat, 72 h
Procedure: as §1

HL-60 leukemia cells = test: In vitro growth inhibition, HL-60; type: cell-based, human; conditions: 1, 3, 10, 33 μM
Procedure: (§2) The K562, HL-60, MDA-MB231, and melanoma (CRL-11174) human cancer cell lines were purchased from ATCC (American Tissue Type Culture Collection, Manassas, Va., United States of America). HeLa, A549, Lewis Lung Carcinoma, MDA-MB231, and melanoma cells were grown in Dulbecco's Modified Eagle Medium (DMEM) (Hyclone, Logan, Utah, United States of America) supplemented with 10% fetal bovine serum (Hyclone, Logan, Utah, United States of America) and 50 μg/mL gentamicin sulfate (Invitrogen, Carlsbad, Calif., United States of America). The HL-60, K562, and Jurkat cell lines were grown in RPMI-1640 medium (Hyclone, Logan, Utah, United States of America) supplemented with 10% fetal bovine serum and 50 μg/mL gentamicin sulfate. […]
(§3) Cells were collected 48 hours post-treatment, and cell number and viability were determined by trypan blue exclusion. […]

PFKFB3 = PFKFB3 (Homo sapiens, UniProt Q16875); test: PFKFB3 enzyme-coupled kinetics assay (pyruvate kinase/lactate dehydrogenase, NADH consumption); conditions: 150 μM
Procedure: PFKFB3 activity was measured by an enzyme-coupled kinetics assay incorporating pyruvate kinase and lactate dehydrogenase as previously described. […] The assay measures NADH consumption spectrophotometrically as a loss of absorption at 340 nm with stoichiometry of 1 mol ATP: 1 mol NADH consumed. Assays were carried out in 96 well plates at 37° in 200 μL final volume containing 1XPFKFB3 reaction buffer (100 mM Tris-HCl, 100 μM EDTA, 5 mM KH2PO4; pH=7.4), 420 μM phophoenolpyruvate (PEP), 5 mM ATP, 400 μM NADH, 613 units of pyruvate kinase (PK), 1092 units of lactate dehydrogenase (LDH), increasing concentrations of fructose-6-phosphate (40-400 μM), and 15 μg of purified PFKFB3. […] Assays were measured using a BioTek POWERWAVE™ plate reader (BioTek Instruments, Inc., Winooski, Vt., United States of America) in kinetics mode over 15 minute periods to determine kinetic rate of PFKFB3. The enzyme kinetics module for SigmaPlot® 9.0 (SYSTAT Software, Inc., San Jose, Calif., United States of America) was used to calculate the kinetic parameters for PFKFB3 and 1 inhibition (Vmax, Km, and Ki). The Vmax is expressed in specific activity of PFKFB3 as nmol F6P×min^−1×mg^−1. […] The data represented are the mean±STD from triplicate measurements from two independent experiments.

K562 leukemia cells = test: In vitro growth inhibition, K562; type: cell-based, human; conditions: 1, 3, 10, 33 μM
Procedure: as §2, §3

[1] = Solubility profile in aqueous media; type: physicochemical; conditions: 23 °C, aqueous buffer
[2] = target: T1, PFKFB3, the recombinant protein (Homo sapiens, UniProt Q16875); test: Inhibition of recombinant PFKFB3 (Adapta Kinase assay); type: biochemical; conditions: read-out: IC50 EArec
T1 construct: made in house; host or cells: E. coli
Procedure: PFKFB3 was prepared by expression in E. coli and purified by GST column and column chromatography. […] The recombinant protein was pure and active as determined by the results of a kinase activity assay commercially available (Adapta® Kinase assay).

[3] = Microsomal stability in human liver microsomes; type: in vitro ADME; conditions: 0 min
Procedure: Microsomal stability in vitro in different biologic media (liver microsomes, S9 fraction, hepatocytes) and species is ascertained to evaluate the rate at which a compound undergoes metabolism in the experimental in vitro conditions. […] Experimental conditions are briefly described here: the stability in human liver microsomes of several compounds was done over […] at 37° C. using pooled mixed gender human liver microsomes. These liver microsomes were prepared at 1.0 mg/ml of microsomal protein in a 100 mM potassium phosphate pH 7.4 buffer with 1 mM NADPH. The media was incubated at 37° C. with the compound in solution in DMSO. The concentration of the compound was followed by LC/MS-MS as a function of time. […] Testosterone was used as a positive control. The same experiment was performed with mouse, rat or dog liver microsomes instead of human liver microsomes.

[4] = Solubility in dosing solution Cre:EtOH:Saline; type: physicochemical; conditions: Cremophor:EtOH:Saline 5:5:90, aqueous with cosolvent or surfactant or cyclodextrin, kinetic from dmso stock; 5:5:90 Cremophor:EtOH:Saline, after 24 hours at room temperature
Description: (§4) Chemical properties of the compounds of the invention were investigated, mainly the solubility in several solvents and pharmaceutically accepted excipients or dosing solutions and the stability of these solutions. […] The increase in solubility when comparing the effect of chemical substituents is unpredictable and surprising if one compares the solubility values of PFK-070 to PFK-091 and PFK-070 to PFK-141 and 145 in a dosing solution that could be used to treat cancer patients (See Table 8A below). Briefly, selected compounds of the invention are dissolved in a small volume of the solvents/excipients of interest (Cremophor, or Cremophor:etoh or Tween80:etoh) at room temperature and diluted 1:9 in saline and left at room temperature for over 8 or 24 hours. Both the physical (absence of a precipitate) and the chemical stability (less than 5% degradation) of the solutions are measured (observation and HPLC after filtration).

NCI-H1437 = test: Cancer cell proliferation, Alamar Blue assay 72 hours, NCI-H1437; type: cell-based; conditions: Homo sapiens
Procedure: as §1

glycolysis = conditions: cited from earlier work
[5] = Solution stability in clear and amber vials; type: physicochemical; conditions: Cre:EtOH:Saline
Description: as §4
Furthermore, the solution stability of the compounds was investigated and it was discovered that, in normal conditions, they lack the appropriate solution stability as they undergo a rapid photoisomerization; this lack of solution stability is such that methods to prevent these compounds from reacting in solutions are necessary if these compounds are to be used as chemotherapeutic agents for the treatment of cancer patients.

T1 sequence (Q16875 whole entry): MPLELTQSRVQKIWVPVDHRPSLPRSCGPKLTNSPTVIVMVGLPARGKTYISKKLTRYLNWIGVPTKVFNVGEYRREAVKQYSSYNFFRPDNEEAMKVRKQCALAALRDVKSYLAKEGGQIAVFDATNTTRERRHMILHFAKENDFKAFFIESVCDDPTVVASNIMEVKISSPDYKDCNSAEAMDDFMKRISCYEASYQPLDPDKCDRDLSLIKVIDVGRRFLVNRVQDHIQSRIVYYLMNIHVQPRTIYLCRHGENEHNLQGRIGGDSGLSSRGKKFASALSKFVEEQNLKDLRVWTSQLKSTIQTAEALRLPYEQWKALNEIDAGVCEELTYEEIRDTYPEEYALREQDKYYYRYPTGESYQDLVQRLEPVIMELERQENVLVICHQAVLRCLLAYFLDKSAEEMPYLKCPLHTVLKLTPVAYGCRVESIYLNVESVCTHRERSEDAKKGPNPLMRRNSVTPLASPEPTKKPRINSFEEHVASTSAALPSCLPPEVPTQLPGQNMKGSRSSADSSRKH
Chain of PFKFB3 (Q16875 whole entry): as above

O=C(/C=C/c1ccc2ccccc2n1)c1ccccc1 [ACT-PFK-076, 1-Phenyl-3-quinolin-2-yl-propenone]
inhibition at 0.5 µM (Jurkat cells): 27% | IC50 (U937): 2.5 µM | IC50 (Calu-6): 3.3 µM | IC50 (NCI-H82): 4 µM | IC50 (Jurkat): 6.4 µM

O=C(/C=C/c1ccc(Cl)cc1)c1cccnc1 [Compound 2, 3-(4-chlorophenyl)-1-(3-pyridinyl)-2-propen-1-one]
cellular toxicity (HL-60 leukemia cells): dose-dependent cellular toxicity | kinetic rate of PFKFB3 reduced compared to vehicle (EtOH) (PFKFB3): 39.8% | kinetic rate of recombinant PFKFB3 as % of that with vehicle (EtOH) (PFKFB3): 39.8% | cellular toxicity (K562 leukemia cells): dose-dependent cellular toxicity

Cc1cccc2ccc(/C=C/C(=O)c3ccncc3)nc12 [PFK-141, HCl, 3-(8-Methyl-quinolin-2-yl)-1-pyridin-4-yl-propenone]
solubility ([1]; pH = 5): 1.7 mg/mL | solubility ([1]; pH = 7): 1.9 mg/mL

Cc1ccc2ccc(/C=C/C(=O)c3ccncc3)nc2c1 [ACT-PFK-154, 3-(7-Methyl-quinolin-2-yl)-1-pyridin-4-yl-propenone]
IC50 [2]: 0.622 ± 0.039 µM | Mean metabolized (%) [3]: 0%

O=C(/C=C/c1ccc2cc(O)ccc2n1)c1ccncc1 [ACT-PFK-149, 3-(6-Hydroxy-quinolin-2-yl)-1-pyridin-4-yl-propenone]
IC50 [2]: 0.811 ± 0.266 µM | solubility at 24 h [4]: 0.3 mg/mL (≈ 1090 µM)

Cc1cccc2ccc(/C=C/C(=O)c3ccncc3)nc12 [ACT-PFK-141, 3-(8-Methyl-quinolin-2-yl)-1-pyridin-4-yl-propenone]
IC50 [2]: 0.21 ± 0.051 µM | IC50 (NCI-H1437): 5.4 µM | solubility at 24 h [4]: 0.8 mg/mL (≈ 2920 µM) | Mean metabolized (%) [3]: 0% | IC50 (NCI-H82): 1.1 µM | IC50 (Jurkat): 0.9 µM

Cc1ccc2ccc(/C=C/C(=O)c3ccncc3)nc2c1 [PFK-154, HCl, 3-(7-Methyl-quinolin-2-yl)-1-pyridin-4-yl-propenone]
solubility ([1]; pH = 5): 2.4 mg/mL | solubility ([1]; pH = 7): 3.4 mg/mL

NC(=O)c1ccc(C(=O)/C=C/c2ccc3ccccc3n2)cc1 [ACT-PFK-091, 4-(3-Quinolin-2-yl-acryloyl)-benzamide]
inhibition at 0.5 µM (Jurkat cells): 11% | IC50 (U937): 0.4 µM | IC50 (NCI-H1437): 4.2 µM | IC50 (Calu-6): 0.2 µM | solubility at 24 h [4]: 0.2 mg/mL (≈ 662 µM) | Mean metabolized (%) [3]: 0% | IC50 (NCI-H82): 0.7 µM | IC50 (Jurkat): 0.6 µM

O=CC[C@@H](O)[C@H](O)[C@H](O)CO [Compound 2-DG, 2-deoxyglucose]
effective concentration of other inhibitors of glycolysis (glycolysis): low mM

CNc1cccc2ccc(/C=C/C(=O)c3ccncc3)nc12 [ACT-PFK-151, 3-(8-Methylamino-quinolin-2-yl)-1-pyridin-4-yl-propenone]
IC50 [2]: 0.289 ± 0.056 µM | solubility at 24 h [4]: 1.9 mg/mL (≈ 6570 µM) | Mean metabolized (%) [3]: 0%

O=C(/C=C/c1ccc2cccc(O)c2n1)c1ccncc1 [PFK-070, HCl, 3-(8-Hydroxy-quinolin-2-yl)-1-pyridin-4-yl-propenone]
Solubility stability, Amber Vials ([5]; 0 hrs): 1.0 mg/mL | Solubility stability, Amber Vials ([5]; 2 hrs): No change | appearance of solution, Clear Vials ([5]; 2 hrs): Change in color | Solubility stability, Amber Vials ([5]; 4 hrs): No change | appearance of solution, Clear Vials ([5]; 4 hrs): Change in color | Solubility stability, Amber Vials ([5]; 8 hrs): No change | appearance of solution, Clear Vials ([5]; 8 hrs): Change in color | solubility at 0 h ([5]; Cremophor:EtOH:Saline solution, aqueous with cosolvent or surfactant or cyclodextrin, kinetic from dmso stock, 0 hrs): 1 mg/mL | solubility at 2 h ([5]; Cremophor:EtOH:Saline solution, aqueous with cosolvent or surfactant or cyclodextrin, kinetic from dmso stock, 2 hrs): 0.9 mg/mL | solubility at 4 h ([5]; Cremophor:EtOH:Saline solution, aqueous with cosolvent or surfactant or cyclodextrin, kinetic from dmso stock, 4 hrs): 0.8 mg/mL | solubility at 8 h ([5]; Cremophor:EtOH:Saline solution, aqueous with cosolvent or surfactant or cyclodextrin, kinetic from dmso stock, 8 hrs): < 0.7 mg/mL

O=C(/C=C/c1ccc2cccc(F)c2n1)c1ccncc1 [ACT-PFK-145, 3-(8-Fluoro-quinolin-2-yl)-1-pyridin-4-yl-propenone]
IC50 [2]: 0.294 ± 0.038 µM | IC50 (NCI-H1437): 4.7 µM | solubility at 24 h [4]: 0.1 mg/mL (≈ 359 µM) | Mean metabolized (%) [3]: 0% | IC50 (NCI-H82): 1.5 µM | IC50 (Jurkat): 0.9 µM

O=C(/C=C/c1ccc2ccccc2n1)c1ccccn1 [ACT-PFK-085, 1-Pyridin-2-yl-3-quinolin-2-yl-propenone]
inhibition at 0.5 µM (Jurkat cells): 31% | IC50 (U937): 2.9 µM | IC50 (Calu-6): 6.9 µM | IC50 (NCI-H82): 2.7 µM | IC50 (Jurkat): 4.9 µM

O=C(/C=C/c1ccc2ccccc2n1)c1ccnc(F)c1 [ACT-PFK-143, 1-(2-Fluoro-pyridin-4-yl)-3-quinolin-2-yl-propenone]
IC50 [2]: 0.654 ± 0.095 µM | IC50 (NCI-H1437): 4.3 µM | IC50 (NCI-H82): 2.6 µM | IC50 (Jurkat): 1.7 µM
